Reference: US12692283B2, “Lignan derivative, preparation method therefor and use thereof” (SHANGHAI INSTITUTE OF MATERIA MEDICA, CHINESE ACADEMY OF …, priority 2021, dated 2026)

Tests used:
WI-38 senescent cells = test: Viability of doxorubicin-induced senescent WI-38 human fibroblasts (MTT); type: cell-based; conditions: WI-38, 72 h, senescent cells induced by 200 nM doxorubicin, co-incubation 3 days
Protocol: WI-38 cells were cultured in DMEM (high glucose, 4.5 g/L) culture medium (supplemented with 10% FBS, 1% PS).
The experimental testing steps for the effects of compounds on the viability of WI-38 senescent cells were as follows. WI-38 cells were seeded in a 96-well plate at 20,000 cells/well. After overnight, 200 nM doxorubicin was added to each well and incubated for 3 days. Then the medium was replaced with normal culture medium. After 1 day of incubation, the culture medium was replaced with 200 nM doxorubicin and incubated for 3 days to successfully induce senescence of WI-38 cells. Subsequently, different concentrations of compounds were added (40 μM was the highest concentration, and diluted according to ¼, a total of 7 concentrations), and after co-incubation for 3 days, 10 μl of MTT (5 mg/ml) was added to each well and incubated for 4 hours. DMSO (150 μl) was added to each well after aspirating the culture medium.

MLO-Y4 senescent cells = test: Viability of doxorubicin-induced senescent MLO-Y4 mouse osteoid cells (MTT); type: cell-based; conditions: MLO-Y4, 72 h, senescent cells induced by 100 nM doxorubicin, co-incubation 3 days, read-out: MOL-Y4 IC50
Protocol: MOL-Y4 cells were cultured in MEM culture medium (supplemented with 10% FBS, 1% PS).
The experimental steps for testing the effects of compounds on the viability of MOL-Y4 senescent cells were as follows. MOL-Y4 cells were seeded in a 96-well plate at 20,000 cells/well. After overnight, 100 nM doxorubicin was added to each well and incubated for 3 days. Then the medium was replaced with normal culture medium. After 1 day of incubation, the culture medium was replaced with 100 nM doxorubicin and incubated for 3 days to successfully induce senescence of MOL-Y4 cells. Subsequently, different concentrations of compounds were added (40 μM was the highest concentration, and diluted according to ¼, a total of 7 concentrations), and after co-incubation for 3 days, 10 μl of MTT (5 mg/ml) was added to each well and incubated for 4 hours. DMSO (150 μl) was added to each well after aspirating the culture medium.

OCI-AML3 cells = test: Viability of human acute myeloid leukemia cells OCI-AML3 (CCK8); type: cell-based; conditions: OCI-AML-3, 72 h, incubation 3 days
Protocol: (§1) OCI-AML3 cells, suspension cells, were cultured in RPIM1640+10% FBS+1% PS culture medium at 37° C. and 5% CO2. OCI-AML3 was seeded in a 96-well plate at 20,000 cells/well, and different concentrations of compounds were added (40 μM was the highest concentration, diluted according to ¼, a total of 7 concentrations). After incubation for 3 days, 10 μl CCK8 reagent was added to each well. After incubation for 2 hours, OD450 was detected by a microplate reader, then the effect of the compound on cell viability, IC50 value was calculated.

[1] = Acta Pharmacologica Sinica, 2018, 39, 787-801, cited from earlier work
NB-1 cells = test: Viability of human neuroblastoma cells NB-1 (CCK8); type: cell-based; conditions: NB1, 72 h, incubation 3 days
Protocol: as §1, with “NB-1” for “OCI-AML3”, “μL” for “μl”

[2] = test system: mitochondrial respiratory chain complex I; conditions: ACS Chemical Biology, 2013, 8 (1), 257-267; cited from earlier work
[3] = Oral pharmacokinetics of Compound A4-1a and Arctigenin in ICR mice (plasma, liver, colon); type: in vivo, mouse; conditions: oral 30 mg/kg, 1-8 h
Protocol: Arctigenin and Compound A4-1a were administered orally at 30 mg/kg to overnight-fasted ICR mice (male, n=3/time point), respectively. The mice were fed 2 hours after administration. Samples were collected before administration and 1 h, 2 h, 4 h, and 8 h after administration. Blood was collected in centrifuge tubes pretreated with heparin sodium and bis(4-nitrophenyl)phosphate (BNPP). After centrifugation at 11,000 rpm for 5 min at 4° C., plasma was obtained and stored at −80° C. Next, 100 […] of plasma sample, precipitated, vortexed for 1 min, and centrifuged (11,000 rpm) for 5 min. A mixture of 20 […] of methanol/acetonitrile (1:1, v/v) was taken to analyze the concentration of the compound by LC-MS/MS. Liver tissue was stored at −80° C. until analysis. After removal of contents, the colon was quickly washed with cold saline containing BNPP and stored at −80° C. until analysis. Analysis method: After 10 times the weight of MeOH/ACN (1:1, v/v) was added to the tissue samples, the homogenate was obtained by homogenizing for 120 s with a homogenizer at 50 Hz and then centrifuged (11000 rpm) for 5 min, and the supernatant was collected. 20 μL of the supernatant was redissolved in 20 μL of ACN/H2O (1:1, v/v), and the compound concentration was analyzed in LC-MS/MS.

[4] = biological target: Mitochondrial Respiratory Complex I (Complex I) (Mus musculus, UniProt P03888+Q91WD5+Q9DC70); test: Inhibitory activity on mitochondrial respiratory Complex I (NADH activity, mitochondria from mouse heart tissue); type: biochemical; conditions: NADH 50 μM, read at 340 nm, 30 μg mouse heart mitochondrial protein
Mitochondrial Respiratory Complex I (Complex I), sequence (P03888 whole entry): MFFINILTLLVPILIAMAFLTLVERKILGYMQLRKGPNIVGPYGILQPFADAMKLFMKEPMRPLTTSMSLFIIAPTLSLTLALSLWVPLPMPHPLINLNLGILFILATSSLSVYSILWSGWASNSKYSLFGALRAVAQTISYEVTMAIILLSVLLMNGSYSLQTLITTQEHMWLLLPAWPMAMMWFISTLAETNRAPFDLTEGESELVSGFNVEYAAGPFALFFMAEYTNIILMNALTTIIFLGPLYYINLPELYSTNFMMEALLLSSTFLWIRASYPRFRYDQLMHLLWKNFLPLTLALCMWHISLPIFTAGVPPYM
Mitochondrial Respiratory Complex I (Complex I), sequence (Q91WD5 34-463): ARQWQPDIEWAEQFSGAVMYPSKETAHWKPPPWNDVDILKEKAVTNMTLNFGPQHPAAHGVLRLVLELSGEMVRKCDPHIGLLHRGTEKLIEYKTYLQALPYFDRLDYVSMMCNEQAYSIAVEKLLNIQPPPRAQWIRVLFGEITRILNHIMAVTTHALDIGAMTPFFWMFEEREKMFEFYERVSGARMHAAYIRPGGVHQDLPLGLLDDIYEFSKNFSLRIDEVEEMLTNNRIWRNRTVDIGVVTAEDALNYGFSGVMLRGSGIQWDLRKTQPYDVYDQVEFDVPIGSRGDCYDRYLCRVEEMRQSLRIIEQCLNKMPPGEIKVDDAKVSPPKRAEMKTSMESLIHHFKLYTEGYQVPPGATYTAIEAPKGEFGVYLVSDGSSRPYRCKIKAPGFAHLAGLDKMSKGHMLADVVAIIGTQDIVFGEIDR
Mitochondrial Respiratory Complex I (Complex I), sequence (Q9DC70 36-224): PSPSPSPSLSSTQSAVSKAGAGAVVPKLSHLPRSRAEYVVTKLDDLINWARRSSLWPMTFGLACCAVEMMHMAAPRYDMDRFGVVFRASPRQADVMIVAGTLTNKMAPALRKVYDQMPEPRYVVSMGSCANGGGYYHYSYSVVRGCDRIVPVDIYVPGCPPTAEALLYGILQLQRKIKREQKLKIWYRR
Protocol: Mitochondria were extracted from mouse heart tissue. […] of solution A (0.22M mannitol, 0.07M sucrose, 0.02M HEPES, 2 mM Tris-HCl, 1 mM EDTA, pH 7.2, 0.4% BSA) was added to the heart tissue. The tissue was cut up and then washed three times with solution A to remove blood and connective tissue, then homogenized using a glass homogenizer about 30 times. The suspension was centrifuged at 3000 g for 1.5 min, and the supernatant was retained. The precipitate was resuspended in solution A with protease inhibitor and re-centrifuged to collect the supernatant. The supernatants from two collections were mixed for the next step. The supernatant was centrifuged at 17500 g for 2.5 min and the supernatant was discarded. The precipitate was resuspended in solution A with protease inhibitor, centrifuged at 17500 g for 4.5 min, resuspended in solution B (2.5 mM potassium phosphate, 5 mM MgCl2 pH 7.2) and repeatedly frozen and thawed to obtain a solution of the mitochondrial complex for subsequent assay. To measure the NADH activity of Complex I, 2.5 mL of reaction solution containing 50 mM HEPES, 5 mM MgCl2 pH 7.5 and 30 μg of mitochondrial protein from the above process was prepared. The compound to be detected was added and equilibrated for 5 minutes, and then was dispensed into each well. Finally, NADH (50 μM) was quickly added, and data at […] were read every 30 sec for a total of 15 minutes. Calculation: the NADH reaction rates for different compounds were calculated, then the inhibition rate (compound reaction rate/control reaction rate×100) was calculated, and the IC50 value of the compound was finally calculated.

| IC50 (OCI-AML3 cells) | IC50 (NB-1 cells) | SMILES | IC50 [4] | other results |
| --- | --- | --- | --- | --- |
| – | – | CC1(C)CCC(c2ccc(Cl)cc2)=C(CN2CCN(c3ccc(C(=O)NS(=O)(=O)c4ccc(N[C@H](CCN5CCOCC5)CSc5ccccc5)c(S(=O)(=O)C(F)(F)F)c4)cc3)CC2)C1 [ABT263, reference compound] | – | IC50 (WI-38 senescent cells): 5600 nM; IC50 (MLO-Y4 senescent cells): 235 nM |
| 589 nM | 2380 nM | COc1cc(C[C@H]2C(=O)OC[C@@H]2Cc2ccc(OC)c(OC)c2)ccc1O [Arctigenin] | – | metabolism after oral administration [1]: easily metabolized after oral administration; bioavailability ([1]; oral): low bioavailability; pharmacokinetic properties ([1]; oral): poor pharmacokinetic properties; inhibition of mitochondrial respiratory chain complex I [2]: moderately potent and selective inhibitor |
| 81 nM | 424 nM | COc1cc(C[C@@]2(C)C(=O)OC[C@@H]2Cc2ccc(OC)c(OC)c2)ccc1O [Compound A4-1a, (3R,4R)-4-(3,4-dimethoxybenzyl)-3-(4-hydroxy-3-methoxybenzyl)-3-methyldihydrofuran-2 (3H)-one] | 507 nM | IC50 (WI-38 senescent cells): 38 nM; IC50 (MLO-Y4 senescent cells): 40 nM; drug concentrations in plasma and tissues compared with Arctigenin [3]: significantly higher drug concentrations in plasma and tissues |
| – | – | COc1cc(C[C@]2(F)C(=O)OC[C@@H]2Cc2ccc(OC)c(OC)c2)ccc1O [Compound A4-1b] | 1270 nM | – |
| – | – | COc1cc(C[C@@]2(F)C(=O)OC[C@@H]2Cc2ccc(OC)c(OC)c2)ccc1O [Compound A4-1c] | 185 nM | – |
| 169 nM | 546 nM | COc1cc(C[C@@]2(Cl)C(=O)OC[C@@H]2Cc2ccc(OC)c(OC)c2)ccc1O [Compound A4-1d] | – | – |
| – | – | COc1cc(C[C@@]2(CCl)C(=O)OC[C@@H]2Cc2ccc(OC)c(OC)c2)ccc1O [Compound A4-1e] | 473 nM | IC50 (WI-38 senescent cells): 1000 nM; IC50 (MLO-Y4 senescent cells): 150 nM |
| 91 nM | 433 nM | COc1cc(C[C@@]2(CO)C(=O)OC[C@@H]2Cc2ccc(OC)c(OC)c2)ccc1O [Compound A4-1i] | – | – |
| – | – | COc1ccc(C[C@H]2COC(=O)[C@@H]2Cc2ccc(O)c(OCCc3ccccc3)c2)cc1OC [Compound B9-1a, (3R,4R)-4-(3,4-dimethoxybenzyl)-3-(4-hydroxy-3-phenylethoxybenzyl)dihydrofuran-2 (3H)-one] | 54 nM | – |
| 274 nM | 175 nM | COc1ccc(C[C@H]2COC(=O)[C@@H]2Cc2ccc(O)c(OCC(F)(F)F)c2)cc1OC [Compound B9-1e] | – | – |
| – | – | COc1ccc(C[C@H]2COC(=O)[C@@H]2Cc2ccc(O)c(OCc3ccccc3)c2)cc1OC [Compound B9-1p] | 465 nM | – |
| – | – | COc1ccc(C[C@H]2COC(=O)[C@@H]2Cc2ccc(O)c(OCCc3ccc(C(F)(F)F)cc3)c2)cc1OC [Compound B9-1q] | 64 nM | – |
| – | – | COc1ccc(C[C@H]2COC(=O)[C@@H]2Cc2ccc(O)c(OCCn3cccc3)c2)cc1OC [Compound B9-1r] | 316 nM | – |
| – | – | COc1ccc(C[C@H]2COC(=O)[C@@H]2Cc2ccc(O)c(OCC(O)c3ccccc3)c2)cc1OC (stereo partly shown) [Compound B9-1u] | 564 nM | – |
| – | – | COc1ccc(C[C@H]2COC(=O)[C@@H]2Cc2ccc(O)c(OCCCc3ccccc3)c2)cc1OC [Compound B9-1v] | 34 nM | – |
| – | – | COc1ccc(C[C@H]2COC(=O)[C@@H]2Cc2ccc(O)c(OCC(O)c3ccc(C(F)(F)F)cc3)c2)cc1OC (stereo partly shown) [Compound B9-1x] | 650 nM | – |
| – | – | COc1ccc(C[C@H]2COC(=O)[C@]2(C)Cc2ccc(O)c(OCCc3ccccc3)c2)cc1OC [Compound B11-1a, (3R,4R)-4-(3,4-dimethoxybenzyl)-3-(4-hydroxy-3-phenylethoxybenzyl)-3-methyldihydrofuran-2 (3H)-one] | 646 nM | – |
| 47 nM | 626 nM | COc1ccc(C[C@H]2COC(=O)[C@]2(C)Cc2ccc(O)c(OCC(F)(F)F)c2)cc1OC [Compound B11-1b] | 668 nM | – |
| 289 nM | 446 nM | COc1ccc(C[C@H]2COC(=O)[C@]2(C)Cc2ccc(O)c(OCC(O)c3ccc(C(F)(F)F)cc3)c2)cc1OC (stereo partly shown) [Compound B11-1c] | – | – |
| – | – | COc1cc(C[C@H]2COC(=O)[C@]2(C)Cc2ccc(O)c(OC)c2)ccc1O [Compound B11-1e] | 1370 nM | – |
| – | – | COc1cc(C[C@@]2(C)C(=O)OC[C@@H]2Cc2ccc3c(c2)OCO3)ccc1O [Compound B11-1f] | 420 nM | – |
| – | – | COc1ccc(C[C@H]2COC(=O)[C@]2(C)Cc2ccc(OC)c(OC)c2)cc1OC [Compound B11-1h] | 13200 nM | – |

| SMILES | IC50 (OCI-AML3 cells) | IC50 (NB-1 cells) | IC50 [4] | other results |
| --- | --- | --- | --- | --- |
| [2H]C([2H])([2H])Oc1cc(C[C@H]2C(=O)OC[C@@H]2Cc2ccc(OC)c(OC)c2)ccc1O [Compound B9-1d] | 602 nM | – | 696 nM | – |
